Results published in patent US20100144779A1, “Marine Alkalod Makaluvamines and Derivatives Thereof” (THE UAB RESEARCH FOUNDATION, priority 2007, published 2010).
Where two headings read alike, the source gives them in different places.

Experiments:
Assay in all cases: MTT growth inhibition assay
Type in all cases: cell-based, human
H1299 = conditions: 72 hr, read-out: Growth inhibitory activity (IC50)
Experimental: (§1) Several of the disclosed compounds were also tested for their ability to inhibit the growth of other cancer cell lines as shown in Tables 4 and 5. The cell lines were obtained from the American Type Culture Collection (Rockville, Md.) and were grown as follows: MCF-7 (p53 wt) breast cancer cells were grown in DMEM media containing 1 mM non-essential amino acids, Earle's BSS, 1 mM Na pyruvate, and 10 mg/L bovine insulin. MDA-MB-468 (p53 mt) cells were grown in DMEM/F-12 Ham's media (1:1 mixture); H838 (p53 wt) cells were grown in RPMI 1640. H358 (p53 null), H1299 (p53 null) cells were grown in RPMI 1640 supplemented with 1.5 g/L Na2CO3; 4.5 g/L glucose, 10 mM HEPES buffer, 1 mM Na pyruvate and 2 mM L-glutamine. A549 (p53 wt) cells were grown in Ham's F12K medium supplemented with 2 mM L-glutamine and 1.5 g/L Na2CO3; LNCaP (p53 wt) cells were grown in RPMI 1640 supplemented with 1.5 g/L Na2CO3, 4.5 g/L glucose, 10 mM HEPES buffer, 1 mM Na pyruvate and 2 mM L-glutamine. PC3 (p53 null) cells were cultured in Ham's F-12K medium containing 2 mM L-glutamine. TRAMP Cl cells were cultured in DEME medium with 4 mM L-glutamine adjusted to contain 1.5 g/L sodium bicarbonate and 4.5 g/L glucose supplemented with 0.005 mg/ml bovine insulin and 10 nM dehydroisoandrosterone, 5% fetal bovine serum and 5% Nu-Serum IV; HPAC (p53 wt) pancreatic cancer cells were grown in a 1:1 mixture of DMEM and Ham's F12 medium containing 1.2 g/L Na2CO3, 2.5 mM L-glutamine, 15 mM HEPES and 0.5 mM Na pyruvate supplemented with 0.002 mg/mL insulin, 5 μg/mL transferrin, 40 ng/mL hydrocortisone, 10 ng/mL epidermal growth factor and 5% fetal bovine serum. PANC-1 (p53 mt) cells were cultured with RPMI 1640 containing 1 mM HEPES buffer, 25 μg/mL gentamicin, 1.5 g/L Na2CO3 and 0.25 μg/mL amphotericin B. BxPC-3 (p53 mt) cells were grown in RPMI 1640 medium, MiaPaCa-2 (p53 mt) and S2013 (p53 mt) cells were grown in DMEM, cell line CFPAC1 (p53 mt) was grown in Iscove's MEM supplemented with 4 mM L-glutamine; T98G (p53 mt) glioma cells were cultured with DMEM supplemented with 1% Na pyruvate, and 1% non-essential amino acids; HCT116 human colon cancer cell lines were kindly provided by Dr. Bert Vogelstein (Johns Hopkins Oncology Center, Baltimore, Md.). The HCT116 cell line was maintained in McCoy's-5A media; Human bronchial epithelial cell line BEAS 2B was cultured in DMEM medium; Human mammary epithelial cell line MCF10A was cultured in a 1:1 mixture of DMEM and Ham's F12 medium containing 5% horse serum, 15 mM hepes buffer, 10 ug/ml insulin, 20 ng/ml EGF, 100 ng/ml choleratoxin and 0.5 ug/ml hydrocortisone; the human primary fibroblast cell lines IMR90-EEA and IMR90-E1A (transformed using the adenoviral oncogene E1A) were gifts from Dr. S. Lee (Harvard University, Boston, Mass.). IMR90 and IMR90-E1A cells were cultured in DMEM medium.
(§2) All media contained 10% FBS and 1% penicillin/streptomycin unless otherwise specified. The effects of disclosed compounds on human cancer cell growth, expressed as the percentage of cell survival, were determined by the MTT [3-(4,5-Dimethyl-2-thiazolyl)-2,5-diphenyl-2H-tetrazolium bromide] assay. Cells were grown in 96-well plates and exposed to the test compounds (0, 0.01, 0.1, 1, 10, 100 μM) for 72 hr followed by addition of 10 μL MTT solution (5 mg/mL; Sigma; St. Louis, Mo.) to each well. The plates were incubated for 2-4 hr at 37° C. The supernatant was then removed and formazan crystals were dissolved with 100 μL of DMSO. The absorbance at 570 nm was recorded with an OPTImax microplate reader (Molecular Devices; Sunnyvale, Calif.). The cell survival percentages were calculated by dividing the mean OD of compound containing wells by that of DMSO-control wells. Three separate experiments were accomplished to determine the IC50.

IMR90-EEA = conditions: normal cells, 72 hr, read-out: Growth inhibitory activity (IC50)
Experimental: as §1, §2

BEAS-2B = conditions: normal cells, 72 hr, read-out: Growth inhibitory activity (IC50)
Experimental: as §1, §2

BXPC3 = conditions: 72 hr, read-out: Growth inhibitory activity (IC50)
Experimental: as §1, §2

MDA-MB-468 = conditions: MDA-MB-468, cancer cell, 72 hr, read-out: Growth inhibitory activity (IC50)
Experimental: as §1, §2

H838 = conditions: 72 hr, read-out: Growth inhibitory activity (IC50)
Experimental: as §1, §2

CFPAC1 = conditions: 72 hr, read-out: Growth inhibitory activity (IC50)
Experimental: as §1, §2

HPAC = conditions: cancer cell, 72 hr, read-out: Growth inhibitory activity (IC50)
Experimental: as §1, §2

H358 = conditions: 72 hr, read-out: Growth inhibitory activity (IC50)
Experimental: as §1, §2

S2013 = conditions: S2013, cancer cell, 72 hr, read-out: Growth inhibitory activity (IC50)
Experimental: as §1, §2

Mia-paca = conditions: 72 hr, read-out: Growth inhibitory activity (IC50)
Experimental: as §1, §2

Panc-1 = conditions: Panc-1, cancer cell, 72 hr, read-out: Growth inhibitory activity (IC50)
Experimental: as §1, §2

LNCaP = conditions: cancer cell, 72 hr, read-out: Growth inhibitory activity (IC50)
Experimental: as §1, §2

MCF10A = conditions: normal cells, 72 hr, read-out: Growth inhibitory activity (IC50)
Experimental: as §1, §2

[1] = Homo sapiens, NCI-H1299, H1299, cancer cell
[2] = Homo sapiens, BXPC-3, BXPC3, cancer cell
[3] = Homo sapiens, NCI-H838, H838, cancer cell
[4] = Homo sapiens, CFPAC-1, CFPAC1, cancer cell
[5] = Homo sapiens, NCI-H358, H358, cancer cell
[6] = Homo sapiens, MIA PaCa-2, cancer cell

SMILES	IC50 (H1299; [1]) [µM]	IC50 (IMR90-EEA; Homo sapiens) [nM]	IC50 (BEAS-2B; Homo sapiens) [nM]	IC50 (BXPC3; [2]) [nM]	IC50 (MDA-MB-468; Homo sapiens) [nM]	IC50 (H838; [3]) [nM]	IC50 (CFPAC1; [4]) [µM]	IC50 (HPAC; Homo sapiens) [nM]	IC50 (H358; [5]) [nM]	IC50 (S2013; Homo sapiens) [µM]	IC50 (Mia-paca; [6]) [nM]	IC50 (Panc-1; Homo sapiens) [nM]	IC50 (LNCaP; Homo sapiens) [nM]	IC50 (MCF10A; Homo sapiens, MCF-10A) [µM]	IC50 (H1299; H1299, cancer cell) [µM]	IC50 (IMR90-EEA) [nM]	IC50 (BEAS-2B) [nM]	IC50 (BXPC3; BXPC3, cancer cell) [nM]	IC50 (MDA-MB-468) [nM]	IC50 (H838; H838, cancer cell) [nM]	other results
O=C(O)C(F)(F)F.O=C1C(NCc2ccc(F)cc2)=CC2=NCCc3c[nH]c1c32 [Compound 28]	0.968	1490	587	2300	125	110	5.4	535	170	4.45	315	104	1290	5.33							
O=C1C(NCCc2ccccc2)=CC2=NCCc3c[nH]c1c32 [Compound 4d]															4.27	3770	695	2940	101	260	IC50 (CFPAC1; CFPAC1, cancer cell): 5.11 µM; IC50 (HPAC): 1130 nM; IC50 (H358; H358, cancer cell): 398 nM; IC50 (S2013): 5.39 µM; IC50 (Mia-paca; cancer cell): 982 nM; IC50 (Panc-1): 258 nM; IC50 (LNCaP): 161 nM; IC50 (MCF10A): 6.82 µM
O=C1C(NCc2ccccc2)=CC2=NCCc3c[nH]c1c32 [Compound 4c]															1.42	2770	1440	2870	126	160	IC50 (CFPAC1; CFPAC1, cancer cell): 8.77 µM; IC50 (HPAC): 689 nM; IC50 (H358; H358, cancer cell): 436 nM; IC50 (S2013): 3.85 µM; IC50 (Mia-paca; cancer cell): 345 nM; IC50 (Panc-1): 141 nM; IC50 (LNCaP): 2750 nM; IC50 (MCF10A): 5.27 µM
O=C(O)C(F)(F)F.O=C1C(NCCc2ccc3c(c2)OCO3)=CC2=NCCc3c[nH]c1c32 [Compound 6]	5.95	5700	2240	3210	428	665	9.1	2920	1200	11.2	2740	587	3960	13.1							
COc1ccc(CCNC2=CC3=NCCc4c[nH]c(c43)C2=O)cc1OC.O=C(O)C(F)(F)F [Compound 20]	5.99	2880	1690	5010	277	838	4.27	2850	983	29.6	1320	720	24500	3.4							
